#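 Exposure lasted 48 hours, with cells grown in 96-well plates and compounds tested at five concentrations. The concentration for 50% growth inhibition is given as GI50. TGI: concentration producing complete growth inhibition.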
# What was measured:
# Experiment in all cases: DTP human tumour cell line panel, 48 h
# U251 CNS = tested on: U251 CNS
# HT29 colon = tested on: HT29 colon
# MDA-MB-231 breast = tested on: MDA-MB-231 breast
# HCC-2998 colon = tested on: HCC-2998 colon
# SK-MEL-5 melanoma = tested on: SK-MEL-5 melanoma
# SF-268 CNS = tested on: SF-268 CNS
# RPMI-8226 leukemia = tested on: RPMI-8226 leukemia
# HS 578T breast = tested on: HS 578T breast
# HOP-62 NSCLC = tested on: HOP-62 NSCLC
# CAKI-1 renal = tested on: CAKI-1 renal
SMILES,GI50 (U251 CNS) [µM],TGI (U251 CNS) [µM],GI50 (HT29 colon) [µM],TGI (HT29 colon) [µM],GI50 (MDA-MB-231 breast) [µM],TGI (MDA-MB-231 breast) [µM],GI50 (HCC-2998 colon) [µM],TGI (HCC-2998 colon) [µM],GI50 (SK-MEL-5 melanoma) [µM],TGI (SK-MEL-5 melanoma) [µM],GI50 (SF-268 CNS) [µM],TGI (SF-268 CNS) [µM],GI50 (RPMI-8226 leukemia) [µM],TGI (RPMI-8226 leukemia) [µM],GI50 (HS 578T breast) [µM],TGI (HS 578T breast) [µM],GI50 (HOP-62 NSCLC) [µM],TGI (HOP-62 NSCLC) [µM],GI50 (CAKI-1 renal) [µM],TGI (CAKI-1 renal) [µM]
Cc1cc(NCc2cc(Nc3ccnc4cc(Cl)ccc34)ccc2F)nc(N2CCSCC2)n1,1.76,3.28,1.77,4.37,1.64,3.63,1.96,4.04,1.53,2.94,1.9,5.27,1.42,3.96,1.77,4.98,1.89,5.64,1.51,3.19
CCCCCCCCCCCC1=NC(C)(C)CN1CC(C)O (stereo not given),3.3,12,1.43,2.86,3.82,13.7,1.69,3.07,5.65,18.1,7.35,19.9,1.58,4.18,2.6,17.3,4.75,17.4,2.97,12.2
O=C(NO)c1ccc(Cn2c(=O)n(-c3ccccc3)c(=O)c3ccccc32)cc1,0.86,2.3,1.83,47.9,1.63,5.16,1.31,2.65,1.06,2.3,1.38,4.52,0.689,93.5,1.6,9.43,1.32,3.24,2.81,12.3
COc1cc(C(=O)O/N=C(\N)Cc2cccc3ccccc23)cc(OC)c1OC,12,25.8,15.7,38.3,4.12,18,17.2,34.3,2.05,4.71,7.55,22.9,3.02,12.6,6.64,41.4,4.42,18.7,5.91,19.5
Oc1ccc(Oc2cnc3cc(Cl)ccc3n2)cc1,54.7,> 100,51.7,> 100,24.5,> 100,24.1,61.6,28.6,> 100,14.8,> 100,16.7,> 100,35.5,> 100,> 100,> 100,21.8,68.2
COc1ccc2c(c1)C(=O)c1c-2c(N2CCN(C(=O)CNCCN(C)C)CC2)nc2ccccc12,2.19,4.68,0.362,1.25,1.79,3.61,1.37,2.98,4.49,16.7,2.28,6,1.67,3.84,2.67,9.87,1.86,4.18,3.86,17.6
Fc1ccc([C@@H]2CCNC[C@H]2COc2ccc3c(c2)OCO3)cc1,8.18,21.1,3.52,13.9,3.07,15,2.1,4.39,4.42,17,10.8,23.5,2.4,8.9,19.8,62.3,13.3,27.4,12.1,25.3
Cc1ccc(-c2cc(-c3ccc(C)cc3)nc(N3CCN(CCNc4ccnc5cc(Cl)ccc45)CC3)n2)cc1,1.43,5.39,1.51,7.26,2.52,9.19,4.82,16.2,6.65,18.3,4.88,21.9,3.48,> 50,1.41,4.56,1.58,6.52,7.56,16.4
